# Where “and” joins values, the source holds several entries; their conditions need not be identical. Identical values can stand only once. Like-named read-outs stand apart in the source and are kept apart here.
# Experiments:
# NFF = conditions: cited from earlier work
# HFF = conditions: read-out: Cytotoxicity: CC50 (HFF), data from literature ref 48; cited from earlier work
# H4K20me3 = experiment: Immunoblotting, histone mark abundance in F32-ART parasites; format: cell-based, Plasmodium falciparum; conditions: 270 nM
# Description: (§1) Abundance of methylated and acetylated histone was determined in parasite cultures in different conditions: “not-treated”, “DHA 24 h”, “DHA 6 h/DHA 24 h” and “DHA 6 h/DHA + compound to be tested 24 h”. At the end of the treatments, parasite cultures were washed in RPMI-1640 and then twice in PBS 1× before red blood cell lysis with 0.075% saponin (Sigma-Aldrich) in PBS. Parasite ghosts were washed 3 times in PBS before incubating the ghosts with E1A lysis buffer (50 mM Hepes pH 7.5; 250 mM NaCl; 5 mM EDTA; 0.1% Triton X-100, 1 mM DTT, 0.2 mM PMSF supplemented with complete Mini EDTA-free protease inhibitor cocktail (Roche®, Basel, Switzerland)) for 15 min. Ghosts were then sonicated for 3 × 15s ON/OFF cycles to shear parasite membranes. Debris were pelleted by centrifuging for 15 min at 13,800× g and 4 °C, and supernatants (containing parasitic proteins) were then collected. Protein concentrations were determined using BCA assay (Bio-Rad, Hercules, CA, USA) according to the manufacturer’s instructions. For each sample, 10 µg of proteins were mixed with 4× sample buffer (10 mL 50% Glycerol, 5 mL 0.5 M Tris HCl pH 6.8, 4 mL 20% SDS, 0.02% Bromophenol blue for a total solution volume of 20 mL) and 100 mM DTT and then separated on 15% SDS-PAGE gels in Laemmli running buffer. Gels were then wet-transferred O/N at 20 V onto PVDF membranes. Membranes were blocked in TBST for 1 h at room temperature. Bottom parts were then probed with histone antibodies while upper parts were probed with PFALDOLASE antibody (Abcam, ab38905, Cambridge, UK) at 1:20,000 dilution. The following primary antibodies were used: anti-H3K4me1 (Abcam, ab8895); anti-H3K4me2 (Abcam, ab35356); anti-H3K9me2 (Abcam, ab1220); anti-H3K9me3 (Millipore, 07-442, Burlington, MA, USA); anti-tetra-acetyl H4 (Millipore, 06-866); anti-H4K8Ac (Millipore, 07-328); anti-H4K20me3 (Abcam, ab9053); anti-H3K4me3 (Diagenode) and anti-H3K9Ac (Millipore, 07-352) at 1:10,000. The following secondary antibodies were used: anti-rabbit IgG-Peroxidase produced in goat (Sigma-Aldrich) or anti-mouse IgG-Peroxidase (Sigma-Aldrich); at 1:20,000 dilutions. Blots were developed using ECL Prime Western Blotting (GE Healthcare, Chicago, IL, USA) and read on a Chemidoc touch imaging software. Densitometry analysis was performed by using ImageLab software from Bio-Rad. To determine if variations in histone abundances were statistically significant, immunoblotting experiments were performed on 3 biological replicates and each run was performed twice.
# H3K4me1 = experiment: as above; format: cell-based, Plasmodium falciparum; conditions: 270 nM
# Description: as §1
# H3K4me2 = experiment: as above; format: cell-based, Plasmodium falciparum; conditions: 270 nM
# Description: as §1
# H3K4me3 = experiment: as above; format: cell-based, Plasmodium falciparum; conditions: 270 nM
# Description: as §1
# [1] = tested on: ART-resistant parasites F32-ART at the quiescent stage; experiment: Modified QSA, 24-h exposure; format: cell-based, Plasmodium falciparum; conditions: DHA 700 nM, compound at its IC90, 24-h exposure
# Description: Epidrugs were tested at their IC90 values. In the present study, quiescence was induced using 3 µM of ART or 700 nM of DHA [28]. Thus, D-sorbitol synchronized ring-stage parasites at 3% parasitemia and 2% hematocrit (5 mL of culture per well in 6-well plates) were first exposed to 6 h of ART or DHA to induce quiescence and then to 48 h of the combination “ART or DHA + compound to be tested”. The combinations “ART 6 h/ART 48 h” or “DHA 6 h/DHA 48 h” were used as controls. The compounds were evaluated, in parallel, on proliferating parasites, i.e., without any pre-treatment. […] The parasitemia for each condition was then microscopically monitored every 2 days. […] When relevant, statistical significance between results obtained for the conditions “ART/ART” and “ART/ART + compound to be tested” or “DHA/DHA” and “DHA/DHA + compound to be tested” was determined by a Log Rank (Mantel Cox) test using GraphPad Prism version 7.05. […]
# To collect enough material for immunoblotting, we performed the analysis after a 24-h exposure of DHA-treated parasites to the epidrug and in parallel evaluated the activity of the three epidrugs in a modified QSA, in which quiescent parasites were exposed to the drug to be tested for 24 instead of 48 h, as in our previous experiments (Figure 2).
# [2] = tested on: Plasmodium falciparum F32-TEM (artemisinin-sensitive twin line); experiment: Standard chemosensitivity assay (SYBR Green I), F32-TEM; format: cell-based; conditions: Plasmodium falciparum; F32-TEM, 48 h incubation, SYBR Green I; mean ± SEM of 3 experiments (* mean of 2); read-out: Antiplasmodial Activity: IC50, F32-TEM
# Description: (§2) They differ by eight mutations in seven genes (PF3D7_0110400, PF3D7_1343700, PF3D7_0213400, PF3D7_1115700, PF3D7_1302100, PF3D7_1459600, PF3D7_1464500) among them the M476I mutation on the kelch13 gene. F32-ART and F32-TEM strains have RSA^0–3 h values up to 12% and less than 0.1%, respectively. […] Both strains were cultured, in the same conditions, according to the Trager and Jensen protocol with modifications. Briefly, parasites were cultivated in RPMI-1640 medium (Biowest) at 2% hematocrit in human red blood cells and 5% human serum (EFS, French Blood Bank) under 5% CO2 in a humid atmosphere at 37 °C.
# (§3) The antimalarial activities of the compounds were evaluated on both strains. […] Antimalarial activities were determined with the SYBR Green I method. Each drug concentration was tested in triplicate. The parasites were incubated with the drugs for 48 h. Plates were read on a BioTek FLX800 Microplate Fluorescence Reader (Bio-Tek instruments, Winooski, VT, USA) (λexcitation = 485 nm, λemission = 528 nm). Control parasite culture (i.e., RPMI with 0.5% DMSO) was referred to as 100% growth. IC50 and IC90 values were determined using GraphPad Prism version 7.05 (GraphPad Software, San Diego, CA, USA). Results were the mean of 3 independent experiments. When it is relevant, statistical significance between results obtained with both parasite strains was determined by a Mann–Whitney test using GraphPad Prism version 7.05.
# [3] = tested on: ART-resistant parasites F32-ART at the quiescent stage; experiment: Quiescent-stage Survival Assay (QSA), 48-h exposure; format: cell-based, Plasmodium falciparum
# Description: The sensitivity of the ART-resistant parasites F32-ART at the quiescent stage towards the different molecules was determined using the QSA (Quiescent-stage Survival Assay), as previously described.
# Epidrugs were tested at their IC90 values. In the present study, quiescence was induced using 3 µM of ART or 700 nM of DHA [28]. Thus, D-sorbitol synchronized ring-stage parasites at 3% parasitemia and 2% hematocrit (5 mL of culture per well in 6-well plates) were first exposed to 6 h of ART or DHA to induce quiescence and then to 48 h of the combination “ART or DHA + compound to be tested”. The combinations “ART 6 h/ART 48 h” or “DHA 6 h/DHA 48 h” were used as controls. The compounds were evaluated, in parallel, on proliferating parasites, i.e., without any pre-treatment. After drug exposure, parasite cultures were washed with 40 mL of RPMI-1640 medium and cultured in drug-free conditions supplemented with 10% human serum in new wells. The parasitemia for each condition was then microscopically monitored every 2 days. Culture media were renewed twice a week and 25 µL of fresh red blood cells were added once a week. Obtained data were used to perform Kaplan–Meier survival analyses considering censored data. The outcome was defined as the day when parasite cultures reached the initial parasitemia (3%) and data were considered as censored if no parasite recrudescence was observed during the 30-day experiment timeframe. When relevant, statistical significance between results obtained for the conditions “ART/ART” and “ART/ART + compound to be tested” or “DHA/DHA” and “DHA/DHA + compound to be tested” was determined by a Log Rank (Mantel Cox) test using GraphPad Prism version 7.05. For the best compounds targeting histones, in order to compare western blots data, modified QSAs were carried out by comparing “DHA 6 h/DHA 24 h” versus “DHA 6 h/DHA + compound to be tested 24 h”.
# [4] = tested on: Plasmodium falciparum F32-ART (artemisinin-resistant strain); experiment: Standard chemosensitivity assay (SYBR Green I), F32-ART; format: cell-based; conditions: for IC50: F32-ART, 48 h incubation, SYBR Green I, mean ± SEM of 3 experiments (* mean of 2), read-out: Antiplasmodial Activity: IC50, F32-ART; for Selectivity Index CC50/IC50: ratio cytotoxicity (mammalian cell type of the CC50)/antiplasmodial activity on F32-ART
# Description: as §2, §3
# [5] = 24 h, F32-ART ring stage proliferating, 3 replicates (Fig 3C)
# [6] = DHA 6 h/DHA + TM2-115 24 h, F32-ART DHA-treated parasites, 3 replicates (Fig 3G)
Compound,"CC50 (NFF; read-out: Cytotoxicity: CC50 (NFF), data from literature ref 43) [nM]",CC50 (HFF) [µM],"Fold change of H4K20me3 abundance, TM2-115 vs DMSO (H4K20me3; [5])","Fold change of H4K20me3 abundance, TM2-115, quiescent stage (H4K20me3; [6])","Fold change of H3K4me1 abundance, TM2-115 vs DMSO (H3K4me1; [5])","Fold change of H3K4me1 abundance, TM2-115, quiescent stage (H3K4me1; [6])","Fold change of H3K4me2 abundance, TM2-115 vs DMSO (H3K4me2; [5])","Fold change of H3K4me2 abundance, TM2-115, quiescent stage (H3K4me2; [6])","Fold change of H3K4me3 abundance, TM2-115 vs DMSO (H3K4me3; [5])","Fold change of H3K4me3 abundance, TM2-115, quiescent stage (H3K4me3; [6])","Recrudescence in modified QSA, DHA 6 h/DHA + compound 24 h vs DHA 6 h/DHA 24 h [1]",IC50 [2] [nM],"Delay in parasite recrudescence time (difference between median recrudescence times), ART/ART + compound vs ART/ART ([3]; quiescence induced with ART 3 µM 6 h, then 48 h ART + compound at its IC90) [days]","Delay in recrudescence time, DHA/DHA + compound vs DHA/DHA ([3]; quiescence induced with DHA 700 nM 6 h, then 48 h DHA + compound at its IC90) [days]","IC90 ([4]; Plasmodium falciparum, F32, concentration used in QSA and immunoblotting) [nM]",IC50 ([4]; Plasmodium falciparum) [nM],Selectivity Index CC50/IC50 [4],"CC50 (NFF; read-out: Cytotoxicity: CC50 (NFF), data from literature ref 40) [nM]"
O=C(CCCCCCC(=O)Nc1ccccc1)NO [SAHA],5500,–,–,–,–,–,–,–,–,–,–,–,–,–,–,–,–,–
COc1cc2c(NC3CCN(C)CC3)nc(N3CCCN(C)CC3)nc2cc1OCc1ccccc1 [TM2-115],–,5.7,inhibited H4K20 methylation and 0.82 and 0.71 and 0.76,did not induce a quantifiable change and 1.10 and 1.20 and 0.97,1.37 and 0.47 and 2.10,did not induce a quantifiable change and 0.51 and 1.07 and 0.76,1.31 and 1.11 and 0.85,did not induce a quantifiable change and 1.00 and 0.95 and 0.47,1.39 and 1.69 and 1.12,did not induce a quantifiable change and 0.81 and 0.67 and 1.16,clearly impaired quiescent parasite survival,104 ± 32,9.5,≥ 6,270,128 ± 30,45,–
CC(/C=C/C(=O)NO)=C\[C@@H](C)C(=O)c1ccc(N(C)C)cc1 [Trichostatin A],–,–,–,–,–,–,–,–,–,–,–,30 ± 3,–,–,–,29 ± 12,7,200

# Source: paper PMC10610379, “Epidrugs as Promising Tools to Eliminate Plasmodium falciparum Artemisinin-Resistant and Quiescent Parasites” (Pharmaceutics, 2023)
